From patent US9695155B2, “Herbicidal substituted pyrimidinyloxy benzene compounds” (E. I. DU PONT DE NEMOURS AND COMPANY, priority 2013, dated 2017)

How the values were obtained:
large (Lg) crabgrass [1] = experiment: Test C postemergence; assay type: in vivo, Digitaria sanguinalis; details: Digitaria sanguinalis, post-emergence
How it was run: (§1)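 Sown in loam/sand → sprayed pre-emergence; or grown to 1–4 leaves in peat mix → sprayed post-emergence. Same solvent/surfactant formulation both ways. Greenhouse 13–15 d. Score 0–100 visual.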

lambsquarters = experiment: Test C postemergence; assay type: in vivo, Chenopodium album; details: Chenopodium album, post-emergence
How it was run: as §1

galium = experiment: Test C postemergence; assay type: in vivo, Galium aparine; details: Galium, post-emergence
How it was run: as §1

yellow nutsedge = experiment: Test C postemergence; assay type: in vivo, Cyperus esculentus; details: Cyperus, post-emergence
How it was run: as §1

pigweed = experiment: Test A postemergence; assay type: in vivo, Amaranthus retroflexus; details: Amaranthus retroflexus, post-emergence, 0 to 100 scale where 0 is no effect and 100 is complete control, read-out: Plant response rating, Pigweed
How it was run: (§2)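 Visual injury scored 0–100 (100 = complete control) against untreated controls about 10 days after treatment in a greenhouse. Test chemicals, formulated with surfactant in non-phytotoxic solvent, were sprayed on soil preemergence or on 2-10 cm, one- to two-leaf plants postemergence.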

barnyardgrass [2] = experiment: Test C postemergence; assay type: in vivo, Echinochloa crus-galli; details: Echinochloa crus-galli, post-emergence
How it was run: as §1

barnyardgrass [3] = experiment: Test A preemergence; assay type: in vivo, Echinochloa crus-galli; details: Echinochloa crus-galli, pre-emergence, 240 h
How it was run: as §2

ragweed = experiment: Test C postemergence; assay type: in vivo, Ambrosia elatior; details: Ambrosia artemisiifolia, post-emergence
How it was run: as §1

sedge, umbrella = experiment: Test B flooded paddy test; assay type: in vivo, Cyperus difformis; details: Cyperus difformis, Flood, 250 g ai/ha; 0 to 100 scale where 0 is no effect and 100 is complete control; read-out: Plant response rating, Sedge, Umbrella
How it was run: (§3)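 Greenhouse flooded-pot test: compounds dosed into 3 cm standing water over 2-leaf plants, flood held constant. Rated visually after 13–15 days on 0–100 (complete control = 100); a dash marks no test result.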

blackgrass = experiment: Test C postemergence; assay type: in vivo, Alopecurus myosuroides; details: Alopecurus myosuroides, post-emergence
How it was run: as §1

large (Lg) crabgrass [4] = experiment: Test A postemergence; assay type: in vivo, Digitaria sanguinalis; details: Digitaria sanguinalis, post-emergence, 240 h
How it was run: as §2

soybean = experiment: Test C postemergence; assay type: in vivo, Glycine max; details: Glycine max, post-emergence
How it was run: as §1

wheat = experiment: Test A preemergence; assay type: in vivo, Triticum aestivum
How it was run: as §2

rice = experiment: Test B flooded paddy test; assay type: in vivo, Oryza sativa; details: Oryza sativa; Flood, 250 g ai/ha; 0 to 100 scale where 0 is no effect and 100 is complete control; read-out: Plant response rating, Rice
How it was run: as §3

Italian ryegrass = experiment: Test C postemergence; assay type: in vivo, Lolium multiflorum; details: Lolium multiflorum, post-emergence
How it was run: as §1

`FC(F)c1cnn(-c2ccccc2Oc2ncc(Cl)cn2)c1` [Compound 80, 5-chloro-2-[2-[4-(difluoromethyl)-1H-pyrazol-1-yl]phenoxy]pyrimidine] was tested, and the pest or weed control at 16 g/ha (large (Lg) crabgrass [1]; 16 g ai/ha, postemergence, visual rating, scale 0 to 100 (0 no effect, 100 complete control), 13 to 15 days, read-out: Crabgrass, Large plant response rating) was 0%, the pest or weed control at 125 g/ha (large (Lg) crabgrass [1]; 125 g ai/ha, postemergence, read-out: Plant response rating (0 to 100), Crabgrass, Large) was 5% and the pest or weed control at 31 g/ha (large (Lg) crabgrass [1]; Postemergence, 31 g ai/ha, scale 0 to 100 (0 no effect, 100 complete control), 13 to 15 days, read-out: Plant response rating, Crabgrass, Large) was 5%. It also gave a pest or weed control at 62 g/ha (large (Lg) crabgrass [1]; Postemergence, 62 g ai/ha, scale 0 to 100 (0 no effect, 100 complete control), read-out: Plant response rating, Crabgrass, Large) of 5%, a pest or weed control at 125 g/ha (lambsquarters; 125 g ai/ha, postemergence, read-out: Plant response rating (0 to 100), Lambsquarters) of 55% and a pest or weed control at 31 g/ha (lambsquarters; Postemergence, 31 g ai/ha, scale 0 to 100 (0 no effect, 100 complete control), 13 to 15 days, read-out: Plant response rating, Lambsquarters) of 60%. The pest or weed control at 62 g/ha (lambsquarters; Postemergence, 62 g ai/ha, scale 0 to 100 (0 no effect, 100 complete control), read-out: Plant response rating, Lambsquarters) was 55%, the pest or weed control at 16 g/ha (galium; 16 g ai/ha, postemergence, visual rating, scale 0 to 100 (0 no effect, 100 complete control), 13 to 15 days, read-out: Galium plant response rating) was 55% and the pest or weed control at 125 g/ha (galium; 125 g ai/ha, postemergence, read-out: Plant response rating (0 to 100), Galium) was 95%. It also gave a pest or weed control at 31 g/ha (galium; Postemergence, 31 g ai/ha, scale 0 to 100 (0 no effect, 100 complete control), 13 to 15 days, read-out: Plant response rating, Galium) of 70%, a pest or weed control at 62 g/ha (galium; Postemergence, 62 g ai/ha, scale 0 to 100 (0 no effect, 100 complete control), read-out: Plant response rating, Galium) of 85% and a pest or weed control at 125 g/ha (yellow nutsedge; 125 g ai/ha, postemergence, read-out: Plant response rating (0 to 100), Nutsedge, Yellow) of 5%. It also gave a pest or weed control at 31 g/ha (yellow nutsedge; Postemergence, 31 g ai/ha, scale 0 to 100 (0 no effect, 100 complete control), 13 to 15 days, read-out: Plant response rating, Nutsedge, Yellow) of 5%, a pest or weed control at 62 g/ha (yellow nutsedge; Postemergence, 62 g ai/ha, scale 0 to 100 (0 no effect, 100 complete control), read-out: Plant response rating, Nutsedge, Yellow) of 5% and a pest or weed control at 125 g/ha (pigweed; 125 g ai/ha) of 100%. For the same molecule, the pest or weed control at 500 g/ha (pigweed; 500 g ai/ha) was 100%, the pest or weed control at 16 g/ha (barnyardgrass [2]; 16 g ai/ha, postemergence, visual rating, scale 0 to 100 (0 no effect, 100 complete control), 13 to 15 days, read-out: Barnyardgrass plant response rating) was 0% and the pest or weed control at 125 g/ha (barnyardgrass [2]; 125 g ai/ha, postemergence, read-out: Plant response rating (0 to 100), Barnyardgrass) was 5%. For the same molecule, the pest or weed control at 31 g/ha (barnyardgrass [2]; Postemergence, 31 g ai/ha, scale 0 to 100 (0 no effect, 100 complete control), 13 to 15 days, read-out: Plant response rating, Barnyardgrass) was 5%, the pest or weed control at 62 g/ha (barnyardgrass [2]; Postemergence, 62 g ai/ha, scale 0 to 100 (0 no effect, 100 complete control), read-out: Plant response rating, Barnyardgrass) was 5% and the pest or weed control at 125 g/ha (barnyardgrass [3]; 125 g ai/ha, 0 to 100 scale where 0 is no effect and 100 is complete control, read-out: Plant response rating, Barnyardgrass) was 60%. The pest or weed control at 500 g/ha (barnyardgrass [3]; 500 g ai/ha, 0 to 100 scale, 0 no effect, 100 complete control, approx. 10 days, read-out: Barnyardgrass plant response rating) was 100%, the pest or weed control at 125 g/ha (ragweed; 125 g ai/ha, postemergence, read-out: Plant response rating (0 to 100), Ragweed) was 45% and the pest or weed control at 31 g/ha (ragweed; Postemergence, 31 g ai/ha, scale 0 to 100 (0 no effect, 100 complete control), 13 to 15 days, read-out: Plant response rating, Ragweed) was 40%. It also gave a pest or weed control at 62 g/ha (ragweed; Postemergence, 62 g ai/ha, scale 0 to 100 (0 no effect, 100 complete control), read-out: Plant response rating, Ragweed) of 40%, a pest or weed control at 250 g/ha (sedge, umbrella) of 80% and a pest or weed control at 16 g/ha (blackgrass; 16 g ai/ha, postemergence, visual rating, scale 0 to 100 (0 no effect, 100 complete control), 13 to 15 days, read-out: Blackgrass plant response rating) of 0%. For the same molecule, the pest or weed control at 125 g/ha (blackgrass; 125 g ai/ha, postemergence, read-out: Plant response rating (0 to 100), Blackgrass) was 40%, the pest or weed control at 31 g/ha (blackgrass; Postemergence, 31 g ai/ha, scale 0 to 100 (0 no effect, 100 complete control), 13 to 15 days, read-out: Plant response rating, Blackgrass) was 5% and the pest or weed control at 62 g/ha (blackgrass; Postemergence, 62 g ai/ha, scale 0 to 100 (0 no effect, 100 complete control), read-out: Plant response rating, Blackgrass) was 10%. For the same molecule, the pest or weed control at 125 g/ha (large (Lg) crabgrass [4]; 125 g ai/ha, 0 to 100 scale where 0 is no effect and 100 is complete control, read-out: Plant response rating, Crabgrass, Large) was 80%, the pest or weed control at 500 g/ha (large (Lg) crabgrass [4]; 500 g ai/ha, 0 to 100 scale, 0 no effect, 100 complete control, read-out: Plant response rating Crabgrass, Large) was 100% and the Soybean plant response rating (crop injury, 0-100 scale) at 125 g/ha (soybean; 125 g ai/ha, postemergence, read-out: Plant response rating (0 to 100), Soybean) was 80%. For the same molecule, the Soybean plant response rating (crop injury, 0-100 scale) at 31 g/ha (soybean; Postemergence, 31 g ai/ha, scale 0 to 100 (0 no effect, 100 complete control), 13 to 15 days) was 60%, the Soybean plant response rating (crop injury, 0-100 scale) at 62 g/ha (soybean; Postemergence, 62 g ai/ha, scale 0 to 100 (0 no effect, 100 complete control)) was 75% and the “Plant response rating, Wheat” value (wheat; 125 g ai/ha, 0 to 100 scale where 0 is no effect and 100 is complete control) was 10. For the same molecule, the plant injury at 500 g/ha (wheat; Triticum aestivum, pre-emergence, 240 h, 500 g ai/ha, 0 to 100 scale, 0 no effect, 100 complete control, approx. 10 days, read-out: Wheat plant response rating) was 50%, the plant injury at 250 g/ha (rice) was 0% and the pest or weed control at 125 g/ha (Italian ryegrass; 125 g ai/ha, postemergence, read-out: Plant response rating (0 to 100), Ryegrass, Italian) was 5%. It also gave a pest or weed control at 31 g/ha (Italian ryegrass; Postemergence, 31 g ai/ha, scale 0 to 100 (0 no effect, 100 complete control), 13 to 15 days, read-out: Plant response rating, Ryegrass, Italian) of 0% and a pest or weed control at 62 g/ha (Italian ryegrass; Postemergence, 62 g ai/ha, scale 0 to 100 (0 no effect, 100 complete control), read-out: Plant response rating, Ryegrass, Italian) of 20%.
